Measurements published in patent US20190075794A1, “BIODEGRADABLE ANTIMICROBIAL COMPOSITIONS AND USES THEREOF TO COMBAT MICROORGANISMS” (IPABC LTD, priority 2015, published 2019).

Assays:
[1] = test system: E. coli; assay: Assay for antimicrobial activity: test solution incubated with 10^6 CFUs bacteria, neutralised, plated, growth assessed after 24 hours; assay type: cell-based; design: key to Growth of E. coli 24 hrs after treatment, 1:100 dilution of bacterial reaction mixture / Growth of E. coli 24 hrs after treatment, 1:1000 dilution of bacterial reaction mixture / Growth of E. coli 24 hrs after treatment, 1:10 dilution of bacterial reaction mixture: + plates with microbial growth; − for plates that had no growth; details: for Growth of E. coli 24 hrs after treatment, 1:1000 dilution of bacterial reaction mixture / Growth of E. coli 24 hrs after treatment, 1:100 dilution of bacterial reaction mixture / Growth of E. coli 24 hrs after treatment, 1:10 dilution of bacterial reaction mixture: 10^6 CFUs, 30 min RT; for Concentration at which growth of E. coli is inhibited: 30 min treatment
Procedure: • APG: AG6210 (Akzo Nobel Surface Chemistry AB) 60% aqueous solution of a 60:40 mixture of decyl-β-D-glucopyranoside and octyl-β-D-glucopyranoside • Decyl-β-D-glucopyranoside—EC number: 259-218-1; CAS number: 54549-25-6 • Octyl-β-D-glucopyranoside—EC number: 414-420-0; CAS number: 108081-06-7 • ε-polylysine: Zhengzhou Bainafo Co., Ltd. […] L(+)-lactic acid. […] CAS number: 79-33-4 • Neutraliser (NF): 30 ml Tween 80, 30 g saponine, 1 g histidine, 1 g cysteine dissolved in 1000 ml water; sterilised by autoclaving. • RBT 24/7: Residual Barrier Technology. Proprietary antimicrobial surface sanitizer. • Culture media: Oxoid plate count agar (CM0463): […]

[2] = at 20° C.; cited from earlier work
[3] = acid(s) alone, printed as cannot inhibit growth when used at up to, combined concentration for lactic + citric
[4] = Table 1: L(+)-lactic acid alone, listed as 250 mM L(+)-Lactic Acid
[5] = Table 1: L(+)-lactic acid alone, listed as 500 mM L(+)-Lactic Acid
[6] = Table 1: L(+)-lactic acid alone, listed as 1M L(+)-Lactic Acid, 1M L(+)-lactic acid
[7] = Table 1: L(+)-lactic acid alone, listed as 2M L(+)-Lactic Acid, 2M L(+)-lactic acid

| Compound | Growth of E. coli 24 hrs after treatment, 1:1000 dilution of bacterial reaction mixture ([1]; Table 2: citric acid alone, listed as 50 mM Citric Acid) | Concentration at which growth of E. coli is inhibited [1, 3] [mM] | Growth of E. coli 24 hrs after treatment, 1:100 dilution of bacterial reaction mixture ([1]; Table 1: L(+)-lactic acid alone, listed as 100 mM L(+)-Lactic Acid) | Growth of E. coli 24 hrs after treatment, 1:1000 dilution of bacterial reaction mixture ([1]; Table 1: L(+)-lactic acid alone, listed as 100 mM L(+)-Lactic Acid, 100 mM L(+)-lactic acid) | Growth of E. coli 24 hrs after treatment, 1:10 dilution of bacterial reaction mixture [1, 4] | Growth of E. coli 24 hrs after treatment, 1:100 dilution of bacterial reaction mixture [1, 4] | Growth of E. coli 24 hrs after treatment, 1:1000 dilution of bacterial reaction mixture ([1]; Table 1: L(+)-lactic acid alone, listed as 250 mM L(+)-Lactic Acid, 250 mM L(+)-lactic acid) | Growth of E. coli 24 hrs after treatment, 1:10 dilution of bacterial reaction mixture [1, 5] | Growth of E. coli 24 hrs after treatment, 1:100 dilution of bacterial reaction mixture [1, 5] | Growth of E. coli 24 hrs after treatment, 1:1000 dilution of bacterial reaction mixture ([1]; Table 1: L(+)-lactic acid alone, listed as 1M L(+)-Lactic Acid) | Growth of E. coli 24 hrs after treatment, 1:10 dilution of bacterial reaction mixture [1, 6] | Growth of E. coli 24 hrs after treatment, 1:100 dilution of bacterial reaction mixture [1, 6] | Growth of E. coli 24 hrs after treatment, 1:1000 dilution of bacterial reaction mixture ([1]; Table 1: L(+)-lactic acid alone, listed as 2M L(+)-Lactic Acid) | Growth of E. coli 24 hrs after treatment, 1:10 dilution of bacterial reaction mixture [1, 7] | Growth of E. coli 24 hrs after treatment, 1:100 dilution of bacterial reaction mixture [1, 7] | Concentration at which growth of E. coli is inhibited ([1]; lactic acid alone) | CMC [2] |
| --- | --- | --- | --- | --- | --- | --- | --- | --- | --- | --- | --- | --- | --- | --- | --- | --- | --- |
| O=C(O)CC(O)(CC(=O)O)C(=O)O [Citric Acid, Citric acid] | + | > 50 |  |  |  |  |  |  |  |  |  |  |  |  |  |  |  |
| C[C@H](O)C(=O)O [L(+)-Lactic Acid, L(+)-lactic acid] |  | > 40 | + | + | + | + | − | + | + | − | + | + | − | − | − | at least 1 M |  |
| CCCCCCCCCCO[C@@H]1O[C@H](CO)[C@@H](O)[C@H](O)[C@H]1O [decylglucoside, Decyl-β-D-glucopyranoside] |  |  |  |  |  |  |  |  |  |  |  |  |  |  |  |  | approximately 300 ppm |
